Results from US20210122730A1, “GLUCOCORTICOID RECEPTOR MODULATORS” (ORIC Pharmaceuticals, Inc., priority 2017, published 2021).
pIC50: −log10 of the molar value.

What follows are molecules tested against T1, GR (Homo sapiens, UniProt P04150) (assay: In Vitro GR Luciferase Reporter Assay (antagonist mode, CHO-K1-GR-MMTV-Luc reporter cells)). Conditions: antagonist assay with 10 nM Dexamethasone, 18-24 hours.
T1 construct: expressed in transfected cells; host or cells: CHO-K1
T1 sequence (P04150 1-777): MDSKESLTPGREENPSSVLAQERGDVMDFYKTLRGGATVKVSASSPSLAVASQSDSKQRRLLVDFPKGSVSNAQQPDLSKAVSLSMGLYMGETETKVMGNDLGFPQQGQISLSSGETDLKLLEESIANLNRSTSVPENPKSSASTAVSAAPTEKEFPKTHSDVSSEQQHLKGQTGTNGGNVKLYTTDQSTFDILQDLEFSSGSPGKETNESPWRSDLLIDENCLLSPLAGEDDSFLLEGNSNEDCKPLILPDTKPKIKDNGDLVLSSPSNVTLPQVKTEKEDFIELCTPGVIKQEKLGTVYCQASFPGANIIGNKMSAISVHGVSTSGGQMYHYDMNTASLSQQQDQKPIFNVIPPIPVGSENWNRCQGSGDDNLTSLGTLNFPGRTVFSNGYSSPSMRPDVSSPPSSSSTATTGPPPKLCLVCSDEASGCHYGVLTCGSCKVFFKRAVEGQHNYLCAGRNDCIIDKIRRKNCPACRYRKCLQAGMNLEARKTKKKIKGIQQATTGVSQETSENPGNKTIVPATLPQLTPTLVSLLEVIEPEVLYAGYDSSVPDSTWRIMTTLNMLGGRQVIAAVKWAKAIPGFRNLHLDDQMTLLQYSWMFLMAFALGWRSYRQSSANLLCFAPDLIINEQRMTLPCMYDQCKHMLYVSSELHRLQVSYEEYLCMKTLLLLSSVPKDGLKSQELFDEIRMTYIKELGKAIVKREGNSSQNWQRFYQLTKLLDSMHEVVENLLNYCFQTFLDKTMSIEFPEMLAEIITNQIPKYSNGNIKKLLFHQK
Format: cell-based
Procedure, shortened: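 Antagonist mode: compounds (8 serial 1:5 dilutions) added to GR-MMTV-luciferase CHO-K1 reporter cells co-exposed to 10 nM dexamethasone final, in phenol red-free DMEM plus 10% CSS. After roughly 18-24 h at 37° C, OneGlo luminescence read and IC50 calculated.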
A pIC50 of at least 7.00 was found for `O=C(c1cc(C(F)(F)F)ccn1)[C@]12Cc3cnn(-c4ccc(F)cc4)c3C=C1CC[C@H](S(=O)(=O)c1cnn(C3CC3)n1)C2` [Example 73, ((4aS,6S)-6-((2-cyclopropyl-2H-1,2,3-triazol-4-yl)sulfonyl)-1-(4-fluorophenyl)-1,4,5,6,7,8-hexahydro-4aH-benzo[f]indazol-4a-yl)(4-(trifluoromethyl)pyridin-2-yl)methanone] in this work. A pIC50 of at least 7.00 was found for `O=C(c1ccc(Cl)cn1)[C@]12Cc3cnn(-c4ccc(F)cc4)c3C=C1CC[C@H](S(=O)(=O)c1ccccn1)C2` [Example 74, (5-chloropyridin-2-yl)((4aS,6S)-1-(4-fluorophenyl)-6-(pyridin-2-ylsulfonyl)-1,4,5,6,7,8-hexahydro-4aH-benzo[f]indazol-4a-yl)methanone] in this work. A pIC50 of at least 7.00 was found for `O=C(c1cc(C(F)(F)F)ccn1)[C@]12Cc3cnn(-c4ccc(F)cc4)c3C=C1CC[C@H](S(=O)(=O)c1cnn(CC(F)(F)F)c1)C2` [Example 75, ((4aS,6S)-1-(4-fluorophenyl)-6-((1-(2,2,2-trifluoroethyl)-1H-pyrazol-4-yl)sulfonyl)-1,4,5,6,7,8-hexahydro-4aH-benzo[f]indazol-4a-yl)(4-(trifluoromethyl)pyridin-2-yl)methanone] in this work. A pIC50 of at least 7.00 was found for `CCn1cc(S(=O)(=O)[C@H]2CCC3=Cc4c(cnn4-c4ccc(F)cc4)C[C@]3(C(=O)c3cc(C(F)(F)F)ccn3)C2)cn1` [Example 76, ((4aS,6S)-6-((1-ethyl-1H-pyrazol-4-yl)sulfonyl)-1-(4-fluorophenyl)-1,4,5,6,7,8-hexahydro-4aH-benzo[f]indazol-4a-yl)(4-(trifluoromethyl)pyridin-2-yl)methanone] in this work. A pIC50 of at least 7.00 was found for `CCn1ncc(S(=O)(=O)[C@H]2CCC3=Cc4c(cnn4-c4ccc(F)cc4)C[C@]3(C(=O)c3ccc(C(F)(F)F)cn3)C2)n1` [Example 77, ((4aS,6S)-6-((2-ethyl-2H-1,2,3-triazol-4-yl)sulfonyl)-1-(4-fluorophenyl)-1,4,5,6,7,8-hexahydro-4aH-benzo[f]indazol-4a-yl)(5-(trifluoromethyl)pyridin-2-yl)methanone] in this work. A pIC50 of at least 7.00 was found for `CN([C@H]1CCC2=Cc3c(cnn3-c3ccc(F)cc3)C[C@]2(C(=O)c2ccc(C3CC3)cn2)C1)S(=O)(=O)c1cnn(C)n1` [Example 78, N-((4aS,6S)-4a-(5-cyclopropylpicolinoyl)-1-(4-fluorophenyl)-4,4a,5,6,7,8-hexahydro-1H-benzo[f]indazol-6-yl)-N,2-dimethyl-2H-1,2,3-triazole-4-sulfonamide] in this work. A pIC50 of at least 7.00 was found for `O=C(c1cc(C(F)(F)F)ccn1)[C@]12Cc3cnn(-c4ccc(F)cc4)c3C=C1CC[C@H](S(=O)(=O)c1cnn(CC3CC3)n1)C2` [Example 79, ((4aS,6S)-6-((2-(cyclopropylmethyl)-2H-1,2,3-triazol-4-yl)sulfonyl)-1-(4-fluorophenyl)-1,4,5,6,7,8-hexahydro-4aH-benzo[f]indazol-4a-yl)(4-(trifluoromethyl)pyridin-2-yl)methanone] in this work. A pIC50 of at least 7.00 was found for `CN([C@H]1CCC2=Cc3c(cnn3-c3ccc(F)cc3)C[C@]2(C(=O)c2ccccn2)C1)S(=O)(=O)c1ccccc1` [Example 80, N-((4aS,6S)-1-(4-fluorophenyl)-4a-picolinoyl-4,4a,5,6,7,8-hexahydro-1H-benzo[f]indazol-6-yl)-N-methylbenzenesulfonamide] in this work. A pIC50 of at least 7.00 was found for `CN([C@H]1CCC2=Cc3c(cnn3-c3ccc(F)cc3)C[C@]2(C(=O)c2ccccn2)C1)S(=O)(=O)c1cccc(Cl)c1` [Example 82, 3-chloro-N-((4aS,6S)-1-(4-fluorophenyl)-4a-picolinoyl-4,4a,5,6,7,8-hexahydro-1H-benzo[f]indazol-6-yl)-N-methylbenzenesulfonamide] in this work. A pIC50 of at least 7.00 was found for `CN([C@H]1CCC2=Cc3c(cnn3-c3ccc(F)cc3)C[C@]2(C(=O)c2ccccn2)C1)S(=O)(=O)c1cccc(C(F)(F)F)c1` [Example 83, N-((4aS,6S)-1-(4-fluorophenyl)-4a-picolinoyl-4,4a,5,6,7,8-hexahydro-1H-benzo[f]indazol-6-yl)-N-methyl-3-(trifluoromethyl)benzenesulfonamide] in this work. A pIC50 of at least 7.00 was found for `CN([C@H]1CCC2=Cc3c(cnn3-c3ccc(F)cc3)C[C@]2(C(=O)c2ccccn2)C1)S(=O)(=O)c1cccnc1` [Example 84, N-((4aS,6S)-1-(4-fluorophenyl)-4a-picolinoyl-4,4a,5,6,7,8-hexahydro-1H-benzo[f]indazol-6-yl)-N-methylpyridine-3-sulfonamide] in this work. A pIC50 of at least 7.00 was found for `CN([C@H]1CCC2=Cc3c(cnn3-c3ccc(F)cc3)C[C@]2(C(=O)c2ccccn2)C1)S(=O)(=O)c1ccc(C(F)(F)F)cc1` [Example 85, N-((4aS,6S)-1-(4-fluorophenyl)-4a-picolinoyl-4,4a,5,6,7,8-hexahydro-1H-benzo[f]indazol-6-yl)-N-methyl-4-(trifluoromethyl)benzenesulfonamide] in this work. A pIC50 of at least 7.00 was found for `CN([C@H]1CCC2=Cc3c(cnn3-c3ccc(F)cc3)C[C@]2(C(=O)c2cc(C(F)(F)F)ccn2)C1)S(=O)(=O)c1ccc(C(F)(F)F)cc1` [Example 86, N-((4aS,6S)-1-(4-fluorophenyl)-4a-(4-(trifluoromethyl)picolinoyl)-4,4a,5,6,7,8-hexahydro-1H-benzo[f]indazol-6-yl)-N-methyl-4-(trifluoromethyl)benzenesulfonamide] in this work. A pIC50 of at least 7.00 was found for `CCn1cc(S(=O)(=O)N(C)[C@H]2CCC3=Cc4c(cnn4-c4ccc(F)cc4)C[C@]3(C(=O)c3cc(C(F)(F)F)ccn3)C2)cn1` [Example 87, 1-ethyl-N-((4aS,6S)-1-(4-fluorophenyl)-4a-(4-(trifluoromethyl)picolinoyl)-4,4a,5,6,7,8-hexahydro-1H-benzo[f]indazol-6-yl)-N-methyl-1H-pyrazole-4-sulfonamide] in this work. A pIC50 of at least 7.00 was found for `CN(C(=O)c1ccccc1)[C@H]1CCC2=Cc3c(cnn3-c3ccc(F)cc3)C[C@]2(C(=O)c2ccccn2)C1` [Example 89, N-((4aS,6S)-1-(4-fluorophenyl)-4a-picolinoyl-4,4a,5,6,7,8-hexahydro-1H-benzo[f]indazol-6-yl)-N-methylbenzamide] in this work. A pIC50 of 6.00 to 7.00 was found for `CN(c1ccccc1)S(=O)(=O)[C@H]1CCC2=Cc3c(cnn3-c3ccc(F)cc3)C[C@]2(C(=O)c2ccccn2)C1` [Example 92, (4aS,6S)-1-(4-fluorophenyl)-N-methyl-N-phenyl-4a-picolinoyl-4,4a,5,6,7,8-hexahydro-1H-benzo[f]indazole-6-sulfonamide] in this work. A pIC50 of at least 7.00 was found for `CN([C@@H]1CCC2=Cc3c(cnn3-c3ccc(F)cc3)C[C@]2(C(=O)c2cc(C(F)(F)F)ccn2)C1)S(=O)(=O)c1cnn(C)c1` [Example 95, N-((4aS,6R)-1-(4-fluorophenyl)-4a-(4-(trifluoromethyl)picolinoyl)-4,4a,5,6,7,8-hexahydro-1H-benzo[f]indazol-6-yl)-N,1-dimethyl-1H-pyrazole-4-sulfonamide] in this work. A pIC50 of at least 7.00 was found for `CN(C(=O)c1cnn(C)c1)[C@H]1CCC2=Cc3c(cnn3-c3ccc(F)cc3)C[C@]2(C(=O)c2cc(C(F)(F)F)ccn2)C1` [Example 96, N-((4aS,6S)-1-(4-fluorophenyl)-4a-(4-(trifluoromethyl)picolinoyl)-4,4a,5,6,7,8-hexahydro-1H-benzo[f]indazol-6-yl)-N,1-dimethyl-1H-pyrazole-4-carboxamide] in this work. A pIC50 of at least 7.00 was found for `CC(C)n1cc(S(=O)(=O)N(C)[C@H]2CCC3=Cc4c(cnn4-c4ccc(F)cc4)C[C@]3(C(=O)c3cc(C(F)(F)F)ccn3)C2)cn1` [Example 97, N-((4aS,6S)-1-(4-fluorophenyl)-4a-(4-(trifluoromethyl)picolinoyl)-4,4a,5,6,7,8-hexahydro-1H-benzo[f]indazol-6-yl)-1-isopropyl-N-methyl-1H-pyrazole-4-sulfonamide] in this work. A pIC50 of 6.00 to 7.00 was found for `CN([C@H]1CCC2=Cc3c(cnn3-c3ccc(F)cc3)C[C@]2(C(=O)c2cc(C(F)(F)F)ccn2)C1)S(=O)(=O)c1cnn(C)c1` [Example 100, N-((4aS,6S)-1-(4-fluorophenyl)-4a-(4-(trifluoromethyl)picolinoyl)-4,4a,5,6,7,8-hexahydro-1H-benzo[f]indazol-6-yl)-N,1-dimethyl-1H-pyrazole-4-sulfonamide] in this work. A pIC50 of 6.00 to 7.00 was found for `CN(c1cnn(C)c1)S(=O)(=O)[C@H]1CCC2=Cc3c(cnn3-c3ccc(F)cc3)C[C@]2(C(=O)c2cc(C(F)(F)F)ccn2)C1` [Example 101, (4aS,6S)-1-(4-fluorophenyl)-N-methyl-N-(1-methyl-1H-pyrazol-4-yl)-4a-(4-(trifluoromethyl)picolinoyl)-4,4a,5,6,7,8-hexahydro-1H-benzo[f]indazole-6-sulfonamide] in this work. A pIC50 of at least 7.00 was found for `CN([C@H]1CCC2=Cc3c(cnn3-c3ccc(F)cc3)C[C@]2(C(=O)c2ccc(C(F)(F)F)cn2)C1)S(=O)(=O)c1ccc(Cl)cc1` [Example 105, 4-chloro-N-((4aS,6S)-1-(4-fluorophenyl)-4a-(5-(trifluoromethyl)picolinoyl)-4,4a,5,6,7,8-hexahydro-1H-benzo[f]indazol-6-yl)-N-methylbenzenesulfonamide] in this work.
